Experiments:
[1] = system: SR; test: Cytotoxicity against human SR cells assessed as growth inhibition at 10 uM after 48 hrs by sulforhodamine B assay; type: functional; settings: read-out: GI
[2] = system: MDA-MB-231; test: Cytotoxicity against human MDA-MB-231 cells assessed as growth inhibition at 10 uM after 48 hrs by sulforhodamine B assay; type: functional; settings: read-out: GI
[3] = system: HL-60(TB); test: Cytotoxicity against human HL-60(TB) cells assessed as growth inhibition at 10 uM after 48 hrs by sulforhodamine B assay; type: functional; settings: read-out: GI
[4] = system: HOP-62; test: Cytotoxicity against human HOP-62 cells assessed as growth inhibition at 10 uM after 48 hrs by sulforhodamine B assay; type: functional; settings: read-out: GI
[5] = system: UACC-62; test: Cytotoxicity against human UACC-62 cells assessed as growth inhibition at 10 uM after 48 hrs by sulforhodamine B assay; type: functional; settings: read-out: GI
[6] = Cytotoxicity against human Hs 578T cells assessed as growth inhibition at 10 uM after 48 hrs by sulforhodamine B assay; type: functional; settings: read-out: GI
[7] = system: HOP-92; test: Cytotoxicity against human HOP-92 cells assessed as growth inhibition at 10 uM after 48 hrs by sulforhodamine B assay; type: functional; settings: read-out: GI
[8] = system: SF-539; test: Cytotoxicity against human SF-539 cells assessed as growth inhibition at 10 uM after 48 hrs by sulforhodamine B assay; type: functional; settings: read-out: GI
[9] = system: HCT-116; test: Cytotoxicity against human HCT-116 cells assessed as growth inhibition at 10 uM after 48 hrs by sulforhodamine B assay; type: functional; settings: read-out: GI
[10] = system: U-251; test: Cytotoxicity against human U-251 cells assessed as growth inhibition at 10 uM after 48 hrs by sulforhodamine B assay; type: functional; settings: read-out: GI
[11] = system: SF-295; test: Cytotoxicity against human SF-295 cells assessed as growth inhibition at 10 uM after 48 hrs by sulforhodamine B assay; type: functional; settings: read-out: GI
[12] = system: NCI-H23; test: Cytotoxicity against human NCI-H23 cells assessed as growth inhibition at 10 uM after 48 hrs by sulforhodamine B assay; type: functional; settings: read-out: GI
[13] = system: 786-0; test: Cytotoxicity against human 786-0 cells assessed as growth inhibition at 10 uM after 48 hrs by sulforhodamine B assay; type: functional; settings: read-out: GI
[14] = system: ACHN; test: Cytotoxicity against human ACHN cells assessed as growth inhibition at 10 uM after 48 hrs by sulforhodamine B assay; type: functional; settings: read-out: GI
[15] = system: MDA-MB-468; test: Cytotoxicity against human MDA-MB-468 cells assessed as growth inhibition at 10 uM after 48 hrs by sulforhodamine B assay; type: functional; settings: read-out: GI
[16] = system: CAKI-1; test: Cytotoxicity against human CAKI-1 cells assessed as growth inhibition at 10 uM after 48 hrs by sulforhodamine B assay; type: functional; settings: read-out: GI
[17] = system: NCI/ADR-RES; test: Cytotoxicity against human NCI-ADR-RES cells assessed as growth inhibition at 10 uM after 48 hrs by sulforhodamine B assay; type: functional; settings: read-out: GI
[18] = system: OVCAR-8; test: Cytotoxicity against human OVCAR8 cells assessed as growth inhibition at 10 uM after 48 hrs by sulforhodamine B assay; type: functional; settings: read-out: GI
[19] = system: SN12C; test: Cytotoxicity against human SN12C cells assessed as growth inhibition at 10 uM after 48 hrs by sulforhodamine B assay; type: functional; settings: read-out: GI
[20] = system: T47D; test: Cytotoxicity against human T47D cells assessed as growth inhibition at 10 uM after 48 hrs by sulforhodamine B assay; type: functional; settings: read-out: GI
[21] = system: A549; test: Cytotoxicity against human A549 cells assessed as growth inhibition at 10 uM after 48 hrs by sulforhodamine B assay; type: functional; settings: read-out: GI
[22] = system: SF-268; test: Cytotoxicity against human SF-268 cells assessed as growth inhibition at 10 uM after 48 hrs by sulforhodamine B assay; type: functional; settings: read-out: GI
[23] = system: LOX IMVI; test: Cytotoxicity against human LOX IMVI cells assessed as growth inhibition at 10 uM after 48 hrs by sulforhodamine B assay; type: functional; settings: read-out: GI
[24] = system: BT-549; test: Cytotoxicity against human BT-549 cells assessed as growth inhibition at 10 uM after 48 hrs by sulforhodamine B assay; type: functional; settings: read-out: GI
[25] = system: UO-31; test: Cytotoxicity against human UO-31 cells assessed as growth inhibition at 10 uM after 48 hrs by sulforhodamine B assay; type: functional; settings: read-out: GI
[26] = system: SNB-75; test: Cytotoxicity against human SNB-75 cells assessed as growth inhibition at 10 uM after 48 hrs by sulforhodamine B assay; type: functional; settings: read-out: GI
[27] = system: SNB-19; test: Cytotoxicity against human SNB-19 cells assessed as growth inhibition at 10 uM after 48 hrs by sulforhodamine B assay; type: functional; settings: read-out: GI
[28] = system: K562; test: Cytotoxicity against human K562 cells assessed as growth inhibition at 10 uM after 48 hrs by sulforhodamine B assay; type: functional; settings: read-out: GI
[29] = system: MCF7; test: Cytotoxicity against human MCF7 cells assessed as growth inhibition at 10 uM after 48 hrs by sulforhodamine B assay; type: functional; settings: read-out: GI
[30] = system: MOLT-4; test: Cytotoxicity against human MOLT-4 cells assessed as growth inhibition at 10 uM after 48 hrs by sulforhodamine B assay; type: functional; settings: read-out: GI
[31] = system: Malme-3M; test: Cytotoxicity against human MALME-3M cells assessed as growth inhibition at 10 uM after 48 hrs by sulforhodamine B assay; type: functional; settings: read-out: GI
[32] = system: CCRF-CEM; test: Cytotoxicity against human CCRF-CEM cells assessed as growth inhibition at 10 uM after 48 hrs by sulforhodamine B assay; type: functional; settings: read-out: GI
[33] = system: OVCAR-4; test: Cytotoxicity against human OVCAR-4 cells assessed as growth inhibition at 10 uM after 48 hrs by sulforhodamine B assay; type: functional; settings: read-out: GI
[34] = system: NCI-H226; test: Cytotoxicity against human NCI-H226 cells assessed as growth inhibition at 10 uM after 48 hrs by sulforhodamine B assay; type: functional; settings: read-out: GI
[35] = system: MCF-10A; test: Cytotoxicity against human MCF10A cells assessed as inhibition of cell growth incubated for 48 hrs by MTT assay; type: cell-based
[36] = Selectivity index, ratio of IC50 for human MCF-10A cells to IC50 for human MCF7 cells; type: toxicity; settings: MCF-10A cells versus MCF7 cells, read-out: Ratio IC50
[37] = system: MCF7; test: Antiproliferative activity against human MCF7 cells assessed as inhibition of cell growth incubated for 48 hrs by MTT assay; type: functional, cell-based; settings: MCF7, 48 h
[38] = molecular target: T1, Phosphatidylinositol 4,5-bisphosphate 3-kinase catalytic subunit delta isoform (Homo sapiens, UniProt O00329); test: Inhibition of PI3Kdelta (unknown origin) using PIP2 as substrate preincubated for 10 mins followed by substrate addition and measured after 1 hr by ELISA
T1 sequence (O00329 whole entry): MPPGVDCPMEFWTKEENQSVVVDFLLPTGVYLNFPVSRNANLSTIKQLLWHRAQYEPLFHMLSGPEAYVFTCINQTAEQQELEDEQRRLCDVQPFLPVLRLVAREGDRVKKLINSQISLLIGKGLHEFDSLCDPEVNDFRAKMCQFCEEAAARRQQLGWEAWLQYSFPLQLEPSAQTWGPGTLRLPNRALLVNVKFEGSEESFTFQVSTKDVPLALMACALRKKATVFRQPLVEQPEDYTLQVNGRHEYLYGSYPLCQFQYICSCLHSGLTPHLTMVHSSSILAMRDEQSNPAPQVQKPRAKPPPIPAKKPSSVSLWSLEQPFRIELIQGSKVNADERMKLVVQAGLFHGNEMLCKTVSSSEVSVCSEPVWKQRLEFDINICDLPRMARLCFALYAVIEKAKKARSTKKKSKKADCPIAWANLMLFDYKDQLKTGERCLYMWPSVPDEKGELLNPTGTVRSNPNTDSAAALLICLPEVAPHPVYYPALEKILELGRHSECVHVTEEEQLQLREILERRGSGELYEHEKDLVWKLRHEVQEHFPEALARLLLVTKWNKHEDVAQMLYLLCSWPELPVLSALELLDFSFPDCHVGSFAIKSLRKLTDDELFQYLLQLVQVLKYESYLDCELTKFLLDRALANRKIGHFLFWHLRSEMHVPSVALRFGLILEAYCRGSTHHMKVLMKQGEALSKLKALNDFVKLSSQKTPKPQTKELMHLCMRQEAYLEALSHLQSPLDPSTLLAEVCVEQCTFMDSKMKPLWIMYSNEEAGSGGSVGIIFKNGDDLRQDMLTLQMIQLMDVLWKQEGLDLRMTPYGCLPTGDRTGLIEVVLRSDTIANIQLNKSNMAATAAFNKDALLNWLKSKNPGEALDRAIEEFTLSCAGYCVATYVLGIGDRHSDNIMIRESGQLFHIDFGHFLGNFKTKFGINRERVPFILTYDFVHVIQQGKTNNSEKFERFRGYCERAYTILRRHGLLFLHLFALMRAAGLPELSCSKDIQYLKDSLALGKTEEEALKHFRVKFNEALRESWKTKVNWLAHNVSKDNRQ

## O=S(=O)(Oc1ccc(-c2nnc(Nc3ccccc3)s2)cc1)C(F)(F)C(F)(F)C(F)(F)C(F)(F)C(F)(F)C(F)(F)F
[1]
  inhibition of growth at 10 µM: 80.5%
[2]
  inhibition of growth at 10 µM: 13.1%
[3]
  inhibition of growth at 10 µM: 29.4%

## COC(=O)/C=C1\S/C(=N\N=C\c2ccc(C(F)(F)F)cc2)N(c2ccccc2)C1=O
[1]
  inhibition of growth at 10 µM: 19.6%
[4]
  inhibition of growth at 10 µM: 36.6%
[5]
  inhibition of growth at 10 µM: 18.4%
[6]
  inhibition of growth at 10 µM: 37.6%
[7]
  inhibition of growth at 10 µM: 12%
[8]
  inhibition of growth at 10 µM: 21%
[9]
  inhibition of growth at 10 µM: 32.4%
[2]
  inhibition of growth at 10 µM: 19.8%
[3]
  inhibition of growth at 10 µM: 16.7%
[10]
  inhibition of growth at 10 µM: 29.2%
[11]
  inhibition of growth at 10 µM: 16.6%
[12]
  inhibition of growth at 10 µM: 10.1%
[13]
  inhibition of growth at 10 µM: 11.1%
[14]
  inhibition of growth at 10 µM: 40.1%
[15]
  inhibition of growth at 10 µM: 24.6%
[16]
  inhibition of growth at 10 µM: 28%
[17]
  inhibition of growth at 10 µM: 11.5%
[18]
  inhibition of growth at 10 µM: 26.6%
[19]
  inhibition of growth at 10 µM: 24.1%
[20]
  inhibition of growth at 10 µM: 20.4%
[21]
  inhibition of growth at 10 µM: 12.4%
[22]
  inhibition of growth at 10 µM: 19.8%
[23]
  inhibition of growth at 10 µM: 19.9%
[24]
  inhibition of growth at 10 µM: 13.6%
[25]
  inhibition of growth at 10 µM: 18.3%
[26]
  inhibition of growth at 10 µM: 39.3%
[27]
  inhibition of growth at 10 µM: 25.8%
[28]
  inhibition of growth at 10 µM: 21.4%
[29]
  inhibition of growth at 10 µM: 25.2%
[30]
  inhibition of growth at 10 µM: 12.8%

## O=S(=O)(Oc1ccc(-c2nnc(Nc3ccccc3)s2)cc1)C(F)(F)C(F)(F)C(F)(F)C(F)(F)C(F)(F)C(F)(F)C(F)(F)C(F)(F)F
[31]
  inhibition of growth at 10 µM: 11.7%
[32]
  inhibition of growth at 10 µM: 12.1%
[24]
  inhibition of growth at 10 µM: 12.9%
[25]
  inhibition of growth at 10 µM: 19.4%

## O=S(=O)(Oc1ccc(-c2nnc(Nc3ccccc3)s2)cc1)C(F)(F)C(F)(F)C(F)(F)C(F)(F)F
[1]
  inhibition of growth at 10 µM: 10.1%
[4]
  inhibition of growth at 10 µM: 12.4%
[5]
  inhibition of growth at 10 µM: 10.7%
[16]
  inhibition of growth at 10 µM: 22.1%
[19]
  inhibition of growth at 10 µM: 14.5%
[20]
  inhibition of growth at 10 µM: 14.1%
[33]
  inhibition of growth at 10 µM: 17.2%
[25]
  inhibition of growth at 10 µM: 19.9%
[28]
  inhibition of growth at 10 µM: 12.6%
[29]
  inhibition of growth at 10 µM: 12.8%
[34]
  inhibition of growth at 10 µM: 15.8%

## FC(F)(F)COc1ccc(/C=N/N=c2\scc(-c3ccccc3)n2-c2ccccc2)cc1
[29]
  inhibition of growth at 10 µM: 53.4%

## COC(=O)/C=C1\S/C(=N\N=C\c2ccc(OS(=O)(=O)C(F)(F)C(F)(F)C(F)(F)C(F)(F)F)cc2)N(c2ccccc2)C1=O
[5]
  inhibition of growth at 10 µM: 21.6%
[29]
  inhibition of growth at 10 µM: 10%

## COc1cccc2c1C(=O)c1c(O)c3c(c(O)c1C2=O)C[C@@](O)(C(=O)CO)C[C@@H]3O[C@H]1C[C@H](N)[C@H](O)[C@H](C)O1 [DOXORUBICIN]
[35]
  IC50: 19 µM

## COc1cc([C@@H]2c3cc4c(cc3[C@@H](O[C@@H]3O[C@@H]5CO[C@@H](C)O[C@H]5[C@H](O)[C@H]3O)[C@H]3COC(=O)[C@H]23)OCO4)cc(OC)c1O [ETOPOSIDE]
[36]
  selectivity ratio: 3.86
[35]
  IC50: 84.7 µM
[37]
  IC50: 12.6 µM

## O=c1cc(N2CCOCC2)oc2c(-c3ccccc3)cccc12 [LY-294002]
[38]
  IC50: 14.9 µM
